Key:
[1] = molecular target: Human mitochondrial SHMT2 (Homo sapiens (Human), UniProt P34897); experiment: SHMT2 activity inhibition assay (serine production from glycine and CH2-THF, mass spectroscopy); format: biochemical; details: 60 minutes at room temperature
From the text: (§1) Full length human cytosolic Serine Hydroxymethyl transferase 1 (SHMT1, residues 1-483 in Uniport ID P34896) was expressed as an N-terminal His6 tagged protein and purified in E. coli using nickel capture followed by size-exclusion chromatography. Human mitochondrial SHMT2 (residues 30-504 in Uniprot ID P34897) with mitochondrial leader sequence deleted was expressed as an N-terminal His6 tagged protein and purified in E. coli using nickel capture followed by size-exclusion chromatography.
Serine hydroxymethyltransferases catalyze the reversible hydroxymethylation of glycine to serine, with methylene tetrahydrofolate (CH2-THF) providing the additional carbon. SHMT1 and SHMT2 activity was determined by measuring serine production from glycine and CH2-THF using mass spectroscopy. Briefly, 15 ul of 0.5 mM glycine and 0.2 mM CH2-THF in 20 mM TEA, pH8.0, 0.2 mM NADPH were added to 384 well plate containing 0, 0.05 mM, 0.005 mM or 0.0005 mM of inhibitor. […] The plate was incubated for 60 minutes at room temperature and the reaction was quenched by the addition of 30 ul of 10% trichloroacetic acid. Serine produced was analyzed using Rapidfire 360 and API4000^+ in the positive ion mode.

[2] = molecular target: human cytosolic Serine Hydroxymethyl transferase 1 (SHMT1) (Homo sapiens (Human), UniProt P34896); experiment: SHMT1 activity inhibition assay (serine production from glycine and CH2-THF, mass spectroscopy); format: biochemical; details: 60 minutes at room temperature
Chain of human cytosolic Serine Hydroxymethyl transferase 1 (SHMT1) (P34896 whole entry): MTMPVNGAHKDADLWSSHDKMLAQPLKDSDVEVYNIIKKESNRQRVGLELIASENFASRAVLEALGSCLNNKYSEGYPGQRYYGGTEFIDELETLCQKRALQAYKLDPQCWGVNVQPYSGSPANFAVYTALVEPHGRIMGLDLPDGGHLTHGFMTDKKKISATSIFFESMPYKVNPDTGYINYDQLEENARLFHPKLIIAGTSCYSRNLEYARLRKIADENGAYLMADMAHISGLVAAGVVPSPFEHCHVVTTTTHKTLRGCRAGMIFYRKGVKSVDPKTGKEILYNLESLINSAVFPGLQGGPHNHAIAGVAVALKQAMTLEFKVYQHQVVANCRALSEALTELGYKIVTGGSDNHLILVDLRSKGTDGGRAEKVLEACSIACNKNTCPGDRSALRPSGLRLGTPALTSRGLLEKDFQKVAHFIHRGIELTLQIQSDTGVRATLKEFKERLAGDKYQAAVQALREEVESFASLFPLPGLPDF
From the text: as §1
Serine hydroxymethyltransferases catalyze the reversible hydroxymethylation of glycine to serine, with methylene tetrahydrofolate (CH2-THF) providing the additional carbon. SHMT1 and SHMT2 activity was determined by measuring serine production from glycine and CH2-THF using mass spectroscopy. Briefly, 15 ul of 0.5 mM glycine and 0.2 mM CH2-THF in 20 mM TEA, pH8.0, 0.2 mM NADPH were added to 384 well plate containing 0, 0.05 mM, 0.005 mM or 0.0005 mM of inhibitor. 15 ul of SHMT1 or 2 were added to initiate the reaction. The plate was incubated for 60 minutes at room temperature and the reaction was quenched by the addition of 30 ul of 10% trichloroacetic acid. Serine produced was analyzed using Rapidfire 360 and API4000^+ in the positive ion mode.

Chain of Human mitochondrial SHMT2 (P34897 30-504): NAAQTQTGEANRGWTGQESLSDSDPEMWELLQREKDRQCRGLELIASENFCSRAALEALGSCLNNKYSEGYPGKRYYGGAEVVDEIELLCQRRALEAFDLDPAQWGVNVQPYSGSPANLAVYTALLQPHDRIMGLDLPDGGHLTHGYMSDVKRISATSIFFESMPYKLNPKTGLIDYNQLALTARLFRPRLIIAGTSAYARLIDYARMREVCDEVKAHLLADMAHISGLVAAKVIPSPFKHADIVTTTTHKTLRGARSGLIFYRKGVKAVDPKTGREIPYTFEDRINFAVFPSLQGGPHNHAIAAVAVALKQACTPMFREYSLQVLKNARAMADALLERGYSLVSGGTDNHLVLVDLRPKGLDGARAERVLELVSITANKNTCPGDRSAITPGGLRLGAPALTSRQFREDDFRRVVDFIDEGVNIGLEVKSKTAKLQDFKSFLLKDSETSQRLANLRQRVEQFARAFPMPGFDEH

SMILES | IC50 [1] [µM] | IC50 [2] [µM]
NC(=O)NCCC[C@@H](NC(=O)Cc1csc(-c2ccc(F)cc2)n1)C(=O)O [Compound I-44] | 100 to 500 | 10 to 100
CC(C)(NC(=O)Cc1cncc(-c2ccc(Cl)cc2-c2ccccc2)c1)C(=O)O [Compound I-17, 2-[[2-[5-(4-Chloro-2-phenyl-phenyl)-3-pyridyl]acetyl]amino]-2-methyl-propanoic Acid] | < 1 | 1 to 10
CC(C)(NC(=O)Cc1cccc(-c2ccc(Cl)cc2-c2ccccc2)n1)C(=O)O [Compound I-18] | < 1 | 1 to 10
O=C(Cc1csc(-c2ccc(Cl)cc2Cl)n1)N[C@@H](Cc1ccccc1)C(=O)O [Compound I-42] | 100 to 500 | 10 to 100
CC(C)(NC(=O)Cc1csc(-c2ccc3c(c2-c2ccccc2)OCCO3)n1)C(=O)O [Compound I-2, 2-Methyl-2-[[2-[2-(5-phenyl-2,3-dihydro-1,4-benzodioxin-6-yl)thiazol-4-yl]acetyl]amino] propanoic Acid] | 1 to 10 | < 1
CC(C)(NC(=O)Cc1cccc(-c2ccc(Cl)cc2-c2ccc(F)cc2)c1)C(=O)O [Compound I-15, 2-[[2-[3-[4-Chloro-2-(4-fluorophenyl)phenyl]phenyl]acetyl]amino]-2-methyl-propanoic Acid] | < 1 | 1 to 10
CC(C)(NC(=O)Cc1csc(-c2ccc(Cl)cc2C2CC2)n1)C(=O)O [Compound I-26] | 1 to 10 | 10 to 100
CSCC[C@H](NC(=O)Cc1csc(-c2ccc(Cl)cc2Cl)n1)C(=O)O [Compound I-48] | 100 to 500 | 100 to 500
O=C(Cc1csc(-c2ccc3c(c2)OCCO3)n1)NC1(C(=O)O)CCC1 [Compound I-37] | 1 to 10 | 10 to 100
O=C(O)CNC(=O)Cc1csc(-c2ccc(Cl)c3ccccc23)n1 [Compound I-40, 2-[2-[2-(4-chloronaphthalen-1-yl)-1,3-thiazol-4-yl]acetamido]acetic Acid] | 10 to 100 | 10 to 100
O=C(O)CNC(=O)Cc1csc(-c2cccc(Cl)c2Cl)n1 [Compound I-59] | 100 to 500 | 100 to 500
CC(C)(NC(=O)Cc1ccnc(-c2ccc(Cl)cc2-c2ccccc2)n1)C(=O)O [Compound I-29] | 1 to 10 | 10 to 100
CC(C)[C@H](NC(=O)Cc1csc(-c2ccc(Cl)cc2Cl)n1)C(=O)O [Compound I-58] | 100 to 500 | 100 to 500
Cc1sc(-c2ccc(Cl)cc2Cl)nc1CC(=O)NC(C)(C)C(=O)O [Compound I-33] | 1 to 10 | 10 to 100
O=C(O)CNC(=O)Cc1csc(-c2ccc3c(c2)OCCO3)n1 [Compound I-62, 2-[2-[2-(2,3-dihydro-1,4-benzodioxin-6-yl)-1,3-thiazol-4-yl]acetamido]acetic Acid] | 100 to 500 | 100 to 500
CC(C)(NC(=O)Cc1csc(-c2ccc(Cl)cc2C2CCOCC2)n1)C(=O)O [Compound I-16, 2-[[2-[2-(4-Chloro-2-tetrahydropyran-4-yl-phenyl)thiazol-4-yl]acetyl]amino]-2-methyl-propanoic Acid] | < 1 | 1 to 10
O=C(Cc1csc(-c2ccccc2Cl)n1)N[C@@H](Cc1ccccc1)C(=O)O [Compound I-69] | 100 to 500 | 100 to 500
COc1ccccc1-c1nc(CC(=O)N[C@@H](C)C(=O)O)cs1 [Compound I-57] | 10 to 100 | 100 to 500
CC(C)c1ccc(-c2nc(CC(=O)N[C@@H](Cc3c[nH]c4ccccc34)C(=O)O)cs2)cc1 [Compound I-51] | 100 to 500 | 100 to 500
CC(C(=O)NCC(=O)O)c1csc(-c2ccc(Cl)cc2Cl)n1 (stereo not drawn) [Compound I-38] | 10 to 100 | 10 to 100
COc1ccc(-c2nc(CC(=O)NC(C)(C)C(=O)O)cs2)c(-c2ccccc2)c1 [Compound I-13, 2-[[2-[2-(4-Methoxy-2-phenyl-phenyl)thiazol-4-yl]acetyl]amino]-2-methyl-propanoic Acid] |  | 1 to 10
CC(C)(NC(=O)Cc1ccnc(-c2ccc(Cl)cc2-c2ccccc2)c1)C(=O)O [Compound I-20] |  | 1 to 10

Reference: US11091451B2, “SHMT inhibitors and uses thereof” (Raze Therapeutics, Inc., priority 2016, dated 2021)
